Reference: patent US10124033B2, “Peptides and methods of use” (BAXALTA INCORPORATED, priority 2014, dated 2018)
Residues, ends and D or L forms follow the SMILES beside them.

Tests used:
C4BP/PS complex = target: T1, C4BP/PS complex (Homo sapiens, UniProt P07225); experiment: LANCE IC50 assay on preformed C4BP/PS complex; type: binding
T1 sequence (P07225 41-676 limits assumed): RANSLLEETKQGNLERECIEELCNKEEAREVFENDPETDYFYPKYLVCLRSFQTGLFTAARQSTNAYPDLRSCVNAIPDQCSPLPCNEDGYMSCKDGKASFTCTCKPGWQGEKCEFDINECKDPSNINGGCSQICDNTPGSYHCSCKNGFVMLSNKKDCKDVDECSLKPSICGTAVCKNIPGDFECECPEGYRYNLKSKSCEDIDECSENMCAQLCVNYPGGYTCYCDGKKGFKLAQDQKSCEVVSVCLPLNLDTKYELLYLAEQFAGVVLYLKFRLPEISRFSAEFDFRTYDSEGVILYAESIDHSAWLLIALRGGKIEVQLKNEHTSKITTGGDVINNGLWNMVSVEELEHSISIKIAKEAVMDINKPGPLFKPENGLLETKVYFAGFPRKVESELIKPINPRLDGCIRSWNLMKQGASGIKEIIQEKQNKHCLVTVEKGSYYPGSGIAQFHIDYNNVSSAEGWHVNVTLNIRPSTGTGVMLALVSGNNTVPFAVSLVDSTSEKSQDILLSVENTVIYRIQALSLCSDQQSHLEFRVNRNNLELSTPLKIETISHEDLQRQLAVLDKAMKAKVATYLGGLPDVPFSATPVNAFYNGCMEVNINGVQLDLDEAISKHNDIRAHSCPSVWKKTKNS
Protocol: To investigate the effect of the peptides described herein on PS/C4BP complexes, a LANCE IC50 assay was established using methods similar to those described above. JBS2572 or JBS3216 was added to a preformed C4BP/PS complex. Changes in the complex concentration were followed by recording the TR-FRET signal. For both peptides, a time- and concentration-dependent dissociation of the C4BP/PS complex was observed. The IC50 of JBS3216 was 0.3 nM, and the IC50 of JBS2572 was 2 nM. The time-dependency of the complex reduction was similar for both peptides. After two hours of incubation in the presence of 100 nM JBS2572 or JBS3216, the C4BP/PS complex was reduced to 60% and 50%, respectively. In addition, binding of biotinylated JBS2572 to Protein S was inhibited by C4BP in the LANCE IC50 assay. Pull-down experiments where JBS2697 was coupled to streptavidin sepharose and incubated for one hour at room temperature with (a) Protein S (1.6 pmol) (b) C4BP (8.5 pmol) and (c) Protein S (1.6 pmol)+C4BP (8.5 pmol) supported the results from the modified LANCE IC50 assay.

human GAS6 = target: T2, human GAS6 (Homo sapiens, UniProt Q14393); experiment: Biacore binding to anti-target GAS6
T2 sequence (Q14393 31-678): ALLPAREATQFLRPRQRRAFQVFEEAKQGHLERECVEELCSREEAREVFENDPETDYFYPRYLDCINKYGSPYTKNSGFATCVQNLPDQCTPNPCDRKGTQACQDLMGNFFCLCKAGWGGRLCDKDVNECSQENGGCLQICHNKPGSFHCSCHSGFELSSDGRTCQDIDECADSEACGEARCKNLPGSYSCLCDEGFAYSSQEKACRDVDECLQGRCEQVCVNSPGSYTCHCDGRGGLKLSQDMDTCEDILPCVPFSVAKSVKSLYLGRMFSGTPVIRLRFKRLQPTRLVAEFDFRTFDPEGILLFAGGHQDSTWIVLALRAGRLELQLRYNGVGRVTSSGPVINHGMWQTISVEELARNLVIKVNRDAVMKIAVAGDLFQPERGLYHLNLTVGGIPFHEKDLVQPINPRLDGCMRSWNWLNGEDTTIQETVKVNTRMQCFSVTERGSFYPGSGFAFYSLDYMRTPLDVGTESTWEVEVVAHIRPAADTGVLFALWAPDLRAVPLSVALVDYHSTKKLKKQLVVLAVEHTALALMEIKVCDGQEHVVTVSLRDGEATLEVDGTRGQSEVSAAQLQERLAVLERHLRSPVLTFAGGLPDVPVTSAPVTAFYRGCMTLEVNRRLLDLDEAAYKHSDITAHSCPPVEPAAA
Protocol: Protein S affinity also was determined via Biacore (Biacore 3000 or Biacore T200) using human full-length Protein S and human GAS6. Briefly, 1000 RU of Protein S or GAS6 were immobilized on a CMS chip. In order to probe the kinetics of Protein S binding peptides to Protein S, the peptides were injected at various concentrations in a HBS-buffer containing 3 mM CaCl2 and 1% DMSO to the flow cell and allowed to interact with the immobilized proteins on the sensor chip. The chip could be regenerated with 4 M MgCl2 in HBS-buffer. Sensorgrams were fitted to a Langmuir binding model for the determination of kon and koff and the calculation of KD. Peptides were tested on their specificity to Protein S with peptide binding studies on the anti-target GAS6.
Interactions with the anti-target GAS6 were measured via Biacore (surface plasmon resonance) (see Example 2). The maximum signal from the interaction of the peptides with human GAS6 was much lower than the signals obtained with Protein S as interaction partner. Kinetic analysis of the low GAS6 binding signals was error prone, and sensorgrams were reviewed visually to estimate anti-target binding. […] The affinity of JBS2572 for the anti-target was at least 10 times less (indeed, at least 150 times less) than the affinity of the peptides for human Protein S. The data provided by this example confirm that peptides described herein specifically bind Protein S.

IC50 (C4BP/PS complex; peptide added to preformed C4BP/PS complex, TR-FRET, read-out: IC50 of dissociation of preformed C4BP/PS complex): 2 nM | C4BP/PS complex reduced to (C4BP/PS complex; two hours of incubation, 100 nM peptide): 60% | affinity for anti-target GAS6 relative to human Protein S (times less) (human GAS6): at least 150 times | binding to GAS6 (human GAS6; 1 μM peptide, sensorgrams reviewed visually): no specific binding
Structure (SMILES): CC(=O)N[C@H](C(=O)NCC(=O)N[C@@H](CC(C)C)C(=O)N[C@H](C(=O)N[C@@H](CO)C(=O)N[C@@H](C)C(=O)NCC(=O)N[C@@H](Cc1c[nH]c2ccccc12)C(=O)N[C@@H](Cc1ccc(O)cc1)C(=O)N[C@@H](CC(=O)O)C(=O)N[C@@H](Cc1ccc(O)cc1)C(=O)N[C@@H](CC(N)=O)C(=O)N[C@@H](Cc1ccccc1)C(=O)N[C@@H](CC(=O)O)C(=O)N[C@@H](Cc1c[nH]cn1)C(=O)N[C@@H](Cc1ccc(O)cc1)C(=O)N[C@@H](CCCNC(=N)N)C(=O)N[C@@H](CCC(=O)O)C(=O)N[C@@H](Cc1ccccc1)C(=O)N[C@H](C(N)=O)[C@@H](C)O)C(C)C)[C@@H](C)O [JBS2572] (Ac-TGLVSAGWYDYNFDHYREFT-NH2)
